We go through 30 compounds from US9546173B2 (Novartis AG, priority 2012, dated 2017).

As a reminder, the IC50 is the concentration needed to halve the response being measured.

Each structure is given as a SMILES string.

In this assay the target is activated ERK2 (Homo sapiens (Human), UniProt P28482). Put plainly: Activated ERK2 kinase assay (AlphaScreen, ERKtide peptide phosphorylation). Format: biochemical. As to conditions: […] ERK2, 200 nM ERKtide peptide, 35 μM ATP, 30 min preincubation; read-out: ERK2 IC50.
Sequence of activated ERK2 (P28482 whole entry): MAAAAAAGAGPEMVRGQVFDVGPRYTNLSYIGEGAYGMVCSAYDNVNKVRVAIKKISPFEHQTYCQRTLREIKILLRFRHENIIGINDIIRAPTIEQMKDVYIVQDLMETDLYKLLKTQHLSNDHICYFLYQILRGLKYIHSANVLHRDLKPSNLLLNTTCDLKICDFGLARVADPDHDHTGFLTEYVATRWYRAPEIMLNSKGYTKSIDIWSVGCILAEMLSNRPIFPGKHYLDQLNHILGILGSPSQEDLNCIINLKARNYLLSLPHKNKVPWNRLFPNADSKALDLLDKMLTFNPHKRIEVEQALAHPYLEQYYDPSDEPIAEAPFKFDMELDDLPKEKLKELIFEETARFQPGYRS
Turning to `CC1(C)c2cnc(NC3CCCCC3)nc2CN1C(=O)N[C@H](CO)c1ccccc1` [compound 86, (S)-2-(cyclohexylamino)-N-(2-hydroxy-1-phenylethyl)-5,5-dimethyl-5H-pyrrolo[3,4-d]pyrimidine-6(7H)-carboxamide], the IC50 amounted to 22 nM. Take `Cn1cc(-c2cccc(CNC(=O)N3Cc4nc(NC5CCOCC5)ncc4C3(C)C)c2)cn1` [compound 87, 5,5-dimethyl-N-(3-(1-methyl-1H-pyrazol-4-yl)benzyl)-2-((tetrahydro-2H-pyran-4-yl)amino)-5H-pyrrolo[3,4-d]pyrimidine-6(7H)-carboxamide]: the IC50 worked out at 91 nM. Next, `CC1(C)c2cnc(NC3CCOCC3)nc2CN1C(=O)NCc1cccc(C(N)=O)c1` [compound 88, N-(3-carbamoylbenzyl)-5,5-dimethyl-2-((tetrahydro-2H-pyran-4-yl)amino)-5H-pyrrolo[3,4-d]pyrimidine-6(7H)-carboxamide]: 11 nM. Under `CC1(C)c2cnc(NC3CCOCC3)nc2CN1C(=O)NCc1nc(-c2ccc(F)cc2)cs1` [compound 89, N-((4-(4-fluorophenyl)thiazol-2-yl)methyl)-5,5-dimethyl-2-((tetrahydro-2H-pyran-4-yl)amino)-5H-pyrrolo[3,4-d]pyrimidine-6(7H)-carboxamide] stands 131 nM; under `CC1(CO)c2cnc(NC3CCOCC3)nc2CN1C(=O)NCc1ccccc1` (stereo not drawn) [compound 90, N-benzyl-5-(hydroxymethyl)-5-methyl-2-((tetrahydro-2H-pyran-4-yl)amino)-5H-pyrrolo[3,4-d]pyrimidine-6(7H)-carboxamide], 4020 nM.

Take `C[C@@H](NC(=O)N1Cc2nc(NC3CCOCC3)ncc2C1(C)CO)c1ccccc1` (stereo partly drawn) [compound 91, 5-(hydroxymethyl)-5-methyl-N-((R)-1-phenylethyl)-2-((tetrahydro-2H-pyran-4-yl)amino)-5H-pyrrolo[3,4-d]pyrimidine-6(7H)-carboxamide]: the IC50 was 657 nM.

`C[C@@H](NC(=O)N1Cc2nc(NC3CCOCC3)ncc2C1(C)CO)c1ccccc1` (stereo partly drawn) [compound 92, 5-(hydroxymethyl)-5-methyl-N-((R)-1-phenylethyl)-2-((tetrahydro-2H-pyran-4-yl)amino)-5H-pyrrolo[3,4-d]pyrimidine-6(7H)-carboxamide]: the IC50 was determined as 1530 nM. Under `O=C(NCCc1ccccc1)N1Cc2nc(NC3CCOCC3)ncc2C12CCC2` [compound 96, N-phenethyl-2′-((tetrahydro-2H-pyran-4-yl)amino)spiro[cyclobutane-1,5′-pyrrolo[3,4-d]pyrimidine]-6′(7′H)-carboxamide] stands 90 nM; under `O=C(Nc1cnn(Cc2ccccc2F)c1)N1Cc2nc(NC3CCOCC3)ncc2C12CCC2` [compound 99, N-(1-(2-fluorobenzyl)-1H-pyrazol-4-yl)-2′-((tetrahydro-2H-pyran-4-yl)amino)spiro[cyclobutane-1,5′-pyrrolo[3,4-d]pyrimidine]-6′(7′H)-carboxamide], 12 nM. Consider `CNC(=O)c1cccc(CNC(=O)N2Cc3nc(NC4CCOCC4)ncc3C2(C)C)c1` [compound 100, 5,5-dimethyl-N-(3-(methylcarbamoyl)benzyl)-2-((tetrahydro-2H-pyran-4-yl)amino)-5H-pyrrolo[3,4-d]pyrimidine-6(7H)-carboxamide], for which the IC50 worked out at 45 nM. `CN(C)C(=O)c1cccc(CNC(=O)N2Cc3nc(NC4CCOCC4)ncc3C2(C)C)c1` [compound 101, N-(3-(dimethylcarbamoyl)benzyl)-5,5-dimethyl-2-((tetrahydro-2H-pyran-4-yl)amino)-5H-pyrrolo[3,4-d]pyrimidine-6(7H)-carboxamide]: the IC50 worked out at 492 nM. Under `CNC(=O)C1CC(NC(=O)N2Cc3nc(NC4CCOCC4)ncc3C2(C)C)CN(Cc2ccccc2F)C1` (stereo not drawn) [compound 102, N-(1-(2-fluorobenzyl)-5-(methylcarbamoyl)piperidin-3-yl)-5,5-dimethyl-2-((tetrahydro-2H-pyran-4-yl)amino)-5H-pyrrolo[3,4-d]pyrimidine-6(7H)-carboxamide] stands 2300 nM; under `CNC(=O)C1CC(NC(=O)N2Cc3nc(NC4CCOCC4)ncc3C2(C)C)CN(Cc2cccc(Cl)c2)C1` (stereo not drawn) [compound 103, N-(1-(3-chlorobenzyl)-5-(methylcarbamoyl)piperidin-3-yl)-5,5-dimethyl-2-((tetrahydro-2H-pyran-4-yl)amino)-5H-pyrrolo[3,4-d]pyrimidine-6(7H)-carboxamide], 9190 nM; under `CC1(C)c2cnc(NC3CCOCC3)nc2CN1C(=O)N[C@@H]1CCN(Cc2cccc(Cl)c2)C1` [compound 104], 37 nM. Next, `CC1(C)c2cnc(NC3CCOCC3)nc2CN1C(=O)Nc1cnn(Cc2ccccc2F)c1` [compound 105, N-(1-(2-fluorobenzyl)-1H-pyrazol-4-yl)-5,5-dimethyl-2-((tetrahydro-2H-pyran-4-yl)amino)-5H-pyrrolo[3,4-d]pyrimidine-6(7H)-carboxamide]: 39 nM. Next, `CC1(C)c2cnc(NC3CCOCC3)nc2CN1C(=O)NCc1cc(F)cc(S(C)(=O)=O)c1` [compound 107, N-(3-fluoro-5-(methylsulfonyl)benzyl)-5,5-dimethyl-2-((tetrahydro-2H-pyran-4-yl)amino)-5H-pyrrolo[3,4-d]pyrimidine-6(7H)-carboxamide]: 44 nM. For the compound `CC1(C)c2cnc(NC3CCOCC3)nc2CN1C(=O)NCc1ccc(S(C)(=O)=O)cc1` [compound 108, 5,5-dimethyl-N-(4-(methylsulfonyl)benzyl)-2-((tetrahydro-2H-pyran-4-yl)amino)-5H-pyrrolo[3,4-d]pyrimidine-6(7H)-carboxamide], the IC50 was determined as 65 nM.

`CC1(C)c2cnc(NC3CCOCC3)nc2CN1C(=O)NCc1cc(Cl)cc(S(C)(=O)=O)c1` [compound 109, N-(3-chloro-5-(methylsulfonyl)benzyl)-5,5-dimethyl-2-((tetrahydro-2H-pyran-4-yl)amino)-5H-pyrrolo[3,4-d]pyrimidine-6(7H)-carboxamide]: the half-maximal inhibitory concentration (IC50) came out at 6 nM. Under `CCCS(=O)(=O)c1cccc(CNC(=O)N2Cc3nc(NC4CCOCC4)ncc3C2(C)C)c1` [compound 110, 5,5-dimethyl-N-(3-(propylsulfonyl)benzyl)-2-((tetrahydro-2H-pyran-4-yl)amino)-5H-pyrrolo[3,4-d]pyrimidine-6(7H)-carboxamide] stands 39 nM. Under `CCS(=O)(=O)c1cccc(CNC(=O)N2Cc3nc(NC4CCOCC4)ncc3C2(C)C)c1` [compound 111, N-(3-(ethylsulfonyl)benzyl)-5,5-dimethyl-2-((tetrahydro-2H-pyran-4-yl)amino)-5H-pyrrolo[3,4-d]pyrimidine-6(7H)-carboxamide] stands 16 nM. Next, `CC1(C)c2cnc(NC3CCOCC3)nc2CN1C(=O)NCc1ccccc1S(C)(=O)=O` [compound 112, 5,5-dimethyl-N-(2-(methylsulfonyl)benzyl)-2-((tetrahydro-2H-pyran-4-yl)amino)-5H-pyrrolo[3,4-d]pyrimidine-6(7H)-carboxamide]: 806 nM; `Cc1cccc(S(=O)(=O)N2CCC[C@@H](NC(=O)N3Cc4nc(NC5CCOCC5)ncc4C3(C)C)C2)c1` [compound 113, (R)-5,5-dimethyl-2-((tetrahydro-2H-pyran-4-yl)amino)-N-(1-(m-tolylsulfonyl)piperidin-3-yl)-5H-pyrrolo[3,4-d]pyrimidine-6(7H)-carboxamide]: 45 nM; `Cc1ccc(S(=O)(=O)N2CCC[C@@H](NC(=O)N3Cc4nc(NC5CCOCC5)ncc4C3(C)C)C2)cc1` [compound 114, (R)-5,5-dimethyl-2-((tetrahydro-2H-pyran-4-yl)amino)-N-(1-tosylpiperidin-3-yl)-5H-pyrrolo[3,4-d]pyrimidine-6(7H)-carboxamide]: 176 nM. With `C[C@@H](NC(=O)N1Cc2nc(NC3CCOCC3)ncc2C1(C)C)c1cc(F)cc(S(C)(=O)=O)c1` [compound 115, (R)-N-(1-(3-fluoro-5-(methylsulfonyl)phenyl)ethyl)-5,5-dimethyl-2-((tetrahydro-2H-pyran-4-yl)amino)-5H-pyrrolo[3,4-d]pyrimidine-6(7H)-carboxamide], the IC50 amounted to 2 nM. Under `C[C@H](NC(=O)N1Cc2nc(NC3CCOCC3)ncc2C1(C)C)c1cc(F)cc(S(C)(=O)=O)c1` [compound 116, (S)-N-(1-(3-fluoro-5-(methylsulfonyl)phenyl)ethyl)-5,5-dimethyl-2-((tetrahydro-2H-pyran-4-yl)amino)-5H-pyrrolo[3,4-d]pyrimidine-6(7H)-carboxamide] stands 457 nM. Next, `CC1(C)c2cnc(NC3CCOCC3)nc2CN1C(=O)N[C@H](CO)c1cccc(S(C)(=O)=O)c1` [compound 117, (S)-N-(2-hydroxy-1-(3-(methylsulfonyl)phenyl)ethyl)-5,5-dimethyl-2-((tetrahydro-2H-pyran-4-yl)amino)-5H-pyrrolo[3,4-d]pyrimidine-6(7H)-carboxamide]: 7 nM; `CC1(C)c2cnc(NC3CCOCC3)nc2CN1C(=O)N[C@@H]1CCCN(S(=O)(=O)c2cccc(Cl)c2)C1` [compound 118, (R)-N-(1-((3-chlorophenyl)sulfonyl)piperidin-3-yl)-5,5-dimethyl-2-((tetrahydro-2H-pyran-4-yl)amino)-5H-pyrrolo[3,4-d]pyrimidine-6(7H)-carboxamide]: 23 nM. Next, `CC1(C)c2cnc(NC3CCOCC3)nc2CN1C(=O)N[C@@H]1CCCN(S(=O)(=O)c2ccc(Cl)cc2)C1` [compound 119, (R)-N-(1-((4-chlorophenyl)sulfonyl)piperidin-3-yl)-5,5-dimethyl-2-((tetrahydro-2H-pyran-4-yl)amino)-5H-pyrrolo[3,4-d]pyrimidine-6(7H)-carboxamide]: 156 nM. Regarding `CC1(C)c2cnc(NC3CCOCC3)nc2CN1C(=O)NCc1ccccc1F` [compound 120, N-(2-fluorobenzyl)-5,5-dimethyl-2-((tetrahydro-2H-pyran-4-yl)amino)-5H-pyrrolo[3,4-d]pyrimidine-6(7H)-carboxamide], the IC50 was determined as 158 nM. Under `CC1(C)c2cnc(NC3CCOCC3)nc2CN1C(=O)NCc1ccc(C(F)(F)F)cc1` [compound 121, 5,5-dimethyl-2-((tetrahydro-2H-pyran-4-yl)amino)-N-(4-(trifluoromethyl)benzyl)-5H-pyrrolo[3,4-d]pyrimidine-6(7H)-carboxamide] stands 10 nM.
